This passage reports inhibition results from patent US10266497B2 (ABIDE THERAPEUTICS, INC., priority 2017, dated 2019).

Test [1] has as its target T1, MAGL (Mus musculus, UniProt O35678).
T1 sequence (O35678 1-303): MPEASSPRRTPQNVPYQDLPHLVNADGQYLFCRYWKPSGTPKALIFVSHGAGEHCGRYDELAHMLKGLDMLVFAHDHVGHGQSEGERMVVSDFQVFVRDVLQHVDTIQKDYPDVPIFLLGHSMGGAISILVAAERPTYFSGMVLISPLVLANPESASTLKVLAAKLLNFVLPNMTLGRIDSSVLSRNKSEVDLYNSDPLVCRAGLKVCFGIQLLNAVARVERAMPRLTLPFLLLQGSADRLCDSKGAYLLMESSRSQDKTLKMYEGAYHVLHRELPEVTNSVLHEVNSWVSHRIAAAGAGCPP
Kind of test: In vitro competitive activity-based protein profiling, MAGL, mouse. The settings on record: read-out: MAGL % inh. 1 μM (mouse).

Test [2] concerns the target T2, MAGL (Homo sapiens, UniProt Q99685).
T2 sequence (Q99685 1-303): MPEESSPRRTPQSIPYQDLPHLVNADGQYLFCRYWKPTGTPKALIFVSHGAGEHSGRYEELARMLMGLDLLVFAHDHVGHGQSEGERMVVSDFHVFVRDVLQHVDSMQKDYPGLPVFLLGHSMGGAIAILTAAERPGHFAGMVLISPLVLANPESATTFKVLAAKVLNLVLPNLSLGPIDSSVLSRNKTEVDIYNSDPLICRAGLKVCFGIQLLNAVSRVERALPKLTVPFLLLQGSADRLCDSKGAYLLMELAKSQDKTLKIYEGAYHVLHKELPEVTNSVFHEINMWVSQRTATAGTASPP
Kind of test: In vitro competitive activity-based protein profiling, MAGL, human. The settings on record: for inhibition at 1 µM: read-out: MAGL % inh. 1 μM (human).

On to `NC(=O)c1ccn(C(=O)N2CCC3(CCCN3C(=O)c3cc4ccc(C(F)(F)F)cc4s3)CC2)n1` [Example 389, 1-(1-(6-(trifluoromethyl)benzo[b]thiophene-2-carbonyl)-1,8-diazaspiro[4.5]decane-8-carbonyl)-1H-pyrazole-3-carboxamide], for which the inhibition at 1 µM on MAGL [1] and at MAGL [2] was above 75% in each case.

As for `O=C(O)c1ccn(C(=O)N2CCC3(CCN(Cc4cccc(-c5ccccc5)c4Cl)C3)CC2)n1` [Example 358, 1-(2-((2-chloro-[1,1′-biphenyl]-3-yl)methyl)-2,8-diazaspiro[4.5]decane-8-carbonyl)-1H-pyrazole-3-carboxylic acid], the inhibition at 1 µM at MAGL [1] and on MAGL [2] was above 75% in each case.

On to `O=C(O)c1ccn(C(=O)N2CCC3(CCN(Cc4cccc(-c5cncnc5)c4)C3)CC2)n1` [Example 302, 1-(2-(3-(pyrimidin-5-yl)benzyl)-2,8-diazaspiro[4.5]decane-8-carbonyl)-1H-pyrazole-3-carboxylic acid], for which the inhibition at 1 µM on MAGL [1] is 0 to 25%. On MAGL [2] (read-out: MAGL % inh. (human) at 10 uM), the inhibition at 10 µM was above 75%.

In the case of `C[C@@H]1CN(Cc2ccc(-c3ccccc3)cc2F)CCN1C(=O)n1ccc(C(=O)O)n1` [Example 253, (R)-1-(4-((3-fluoro-[1,1′-biphenyl]-4-yl)methyl)-2-methylpiperazine-1-carbonyl)-1H-pyrazole-3-carboxylic acid], the inhibition at 1 µM on MAGL [1] and on MAGL [2] was above 75% throughout.

For `NC(=O)c1ccn(C(=O)N2CC3CN(Cc4ccc(C5(O)CCOCC5)cc4C(F)(F)F)CC3C2)n1` (stereo not drawn) [Example 396], the inhibition at 1 µM at MAGL [1] and on MAGL [2] was above 75% each time.

In the case of `O=C(O)c1nn(C(=O)N2C[C@H]3C[C@H](OCc4cc(F)cc(Cl)c4)C[C@H]3C2)cc1Cl` [Example 296, 4-chloro-1-(trans-5-((3-chloro-5-fluorobenzyl)oxy)octahydrocyclopenta [c]pyrrole-2-carbonyl)-1H-pyrazole-3-carboxylic acid], the inhibition at 1 µM at MAGL [1] and on MAGL [2] was above 75% in each case.

As to `O=C(O)c1ccn(C(=O)N2C[C@H]3C[C@H](OCc4cccc(C5CCCC5)c4)C[C@H]3C2)n1` [Example 34, 1-(trans-5-((3-Cyclopentylbenzyl)oxy)octahydrocyclopenta[c]pyrrole-2-carbonyl)-1H-pyrazole-3-carboxylic Acid], the inhibition at 1 µM on MAGL [1] and at MAGL [2] was above 75% in each case.

Consider `O=C(O)c1ccn(C(=O)N2C[C@H]3C[C@@H](OCc4cccc(-c5ccccc5)c4)C[C@H]3C2)n1` [Example 279, 1-(cis-5-([1,1′-biphenyl]-3-ylmethoxy)octa-hydrocyclopenta[c]pyrrole-2-carbonyl)-1H-pyrazole-3-carboxylic acid], for which the inhibition at 1 µM on MAGL [1] and on MAGL [2] was above 75% in each case.

As for `O=C(O)c1ccn(C(=O)N2CCC3(CCCN3Cc3ccc(C(F)(F)F)cc3N3CCN4CCC[C@H]4C3)CC2)n1` [Example 418, (S)-1-(1-(2-(hexahydropyrrolo[1,2-a]pyrazin-2(1H)-yl)-4-(trifluoromethyl)benzyl)-1,8-diazaspiro[4.5]decane-8-carbonyl)-1H-pyrazole-3-carboxylic acid], the inhibition at 1 µM on MAGL [1] lay in the range of 0 to 25%; on MAGL [2], 25 to 50%.

As to `NC(=O)c1ccn(C(=O)N2CCC3(CCN(Cc4cccc(C(F)(F)F)c4)C3)CC2)n1` [Example 284, 1-(2-(3-(trifluoromethyl)benzyl)-2,8-diazaspiro[4.5]decane-8-carbonyl)-1H-pyrazole-3-carboxamide], the inhibition at 1 µM on MAGL [1] and at MAGL [2] was above 75% each time.

Regarding `O=C(O)c1ccn(C(=O)N2CCN(Cc3ccc(C(F)(F)F)cc3N3CC[C@@H](O)C3)CC2)n1` [Example 333, (R)-1-(4-(2-(3-hydroxypyrrolidin-1-yl)-4-(trifluoromethyl)benzyl)piperazine-1-carbonyl)-1H-pyrazole-3-carboxylic acid], the inhibition at 1 µM at MAGL [1] and at MAGL [2] was above 75% throughout.

Turning to `O=C(O)c1ccn(C(=O)N2C[C@H]3C[C@H](Oc4cccc(-c5ccnnc5)c4)C[C@H]3C2)n1` [Example 248, 1-(trans-5-(3-(pyridazin-4-yl)phenoxy)octa-hydrocyclopenta[c]pyrrole-2-carbonyl)-1H-pyrazole-3-carboxylic acid], the inhibition at 1 µM on MAGL [1] is 0 to 25%; at MAGL [2] it was 25 to 50%.

As for `C[C@H]1C[C@@H](N(C)Cc2cccc(C(F)(F)F)c2)CCN1C(=O)n1ccc(C(N)=O)n1` [Example 24, 1-((2S,4S)-2-Methyl-4-(methyl(3-(trifluoromethyl)benzyl)amino)piperidine-1-carbonyl)-1H-pyrazole-3-carboxamide], the inhibition at 1 µM at MAGL [1] and on MAGL [2] was above 75% in each case.

On to `Cc1ccc(COC2CCN(C(=O)n3ccc(C(=O)O)n3)CC2)cc1C(F)(F)F` [Example 236, 1-(4-((4-methyl-3-(trifluoromethyl)benzyl)oxy)piper-idine-1-carbonyl)-1H-pyrazole-3-carboxylic acid], for which the inhibition at 1 µM at MAGL [1] and on MAGL [2] was above 75% throughout.

In the case of `O=C(O)c1ccn(C(=O)N2CCN(Cc3cccc(Oc4ncccc4F)c3)CC2)n1` [Example 264, 1-(4-(3-((3-fluoropyridin-2-yl)oxy)benzyl)piper-azine-1-carbonyl)-1H-pyrazole-3-carboxylic acid], the inhibition at 1 µM at MAGL [1] and on MAGL [2] was above 75% each time.

Regarding `CN(Cc1ccc(N2CCCC2)c(C(F)(F)F)c1)C1(C)CCN(C(=O)n2ccc(C(=O)O)n2)CC1` [Example 383, 1-(4-methyl-4-(methyl(4-(pyrrolidin-1-yl)-3-(trifluoromethyl)benzyl)amino)piper-idine-1-carbonyl)-1H-pyrazole-3-carboxylic acid], the inhibition at 1 µM on MAGL [1] and on MAGL [2] was above 75% in each case.

Take `C[C@@H]1CN(Cc2ccc(C(F)(F)F)cc2N2CCCC2)CCN1C(=O)n1ccc(C(N)=O)n1` [Example 325, (R)-1-(2-methyl-4-(2-(pyrrolidin-1-yl)-4-(trifluoromethyl)benzyl)piperazine-1-carbonyl)-1H-pyrazole-3-carboxamide]: the inhibition at 1 µM on MAGL [1] and on MAGL [2] was above 75% each time.

For the molecule `O=C(O)c1ccn(C(=O)N2CCC3(CCCN3Cc3ccc(C(F)(F)F)cc3N3CCOCC3)CC2)n1` [Example 405, 1-(1-(2-morpholino-4-(trifluoromethyl)benzyl)-1,8-diazaspiro[4.5]decane-8-carbonyl)-1H-pyrazole-3-carboxylic acid], the inhibition at 1 µM on MAGL [1] and on MAGL [2] was above 75% in each case.

`CCOc1cc(CN2CCC3(CCN(C(=O)n4ccc(C(=O)O)n4)CC3)C2)ccc1Cl` [Example 21, 1-(2-(4-chloro-3-ethoxybenzyl)-2,8-diazaspiro[4.5]decane-8-carbonyl)-1H-pyrazole-3-carboxylic acid]: the inhibition at 1 µM at MAGL [1] and on MAGL [2] was 25 to 50% in each case.

Take `CC(C)(O)COc1cccc(O[C@H]2C[C@@H]3CN(C(=O)n4ccc(C(N)=O)n4)C[C@@H]3C2)c1Cl` [Example 452, 1-(trans-5-(2-chloro-3-(2-hydroxy-2-methylpropoxy)phenoxy)octahydro-cyclopenta[c]pyrrole-2-carbonyl)-1H-pyrazole-3-carboxamide]: the inhibition at 1 µM at MAGL [1] and at MAGL [2] was above 75% each time.

For `Cc1cn(C(=O)N2C[C@H]3C[C@H](Oc4ccccc4-c4ccccc4)C[C@H]3C2)nc1C(=O)O` [Example 281, 1-(trans-5-([1,1′-biphenyl]-2-yloxy)octahydro-cyclopenta[c]pyrrole-2-carbonyl)-4-methyl-1H-pyrazole-3-carboxylic acid], the inhibition at 1 µM on MAGL [1] and at MAGL [2] was above 75% throughout.

`O=C(O)c1ccn(C(=O)N2CCC3(CCN(Cc4cccc(C(F)(F)F)c4)CC3)C2)n1` [Example 287, 1-(8-(3-(trifluoromethyl)benzyl)-2,8-diazaspiro[4.5]decane-2-carbonyl)-1H-pyrazole-3-carboxylic acid]: the values for the inhibition at 1 µM on MAGL [1] and at MAGL [2] were 0 to 25% and 25 to 50%, respectively.

On to `O=C(O)c1ccn(C(=O)N2CCC3(CCN(Cc4cccc(Cl)c4C(F)(F)F)C3)CC2)n1` [Example 340, 1-(2-(3-chloro-2-(trifluoromethyl)benzyl)-2,8-diazaspiro[4.5]decane-8-carbonyl)-1H-pyrazole-3-carboxylic acid], for which the inhibition at 1 µM on MAGL [1] and on MAGL [2] was above 75% each time.

Turning to `O=C(O)c1ccn(C(=O)N2CCN(Cc3cccc(Oc4cnccc4C(F)(F)F)c3)CC2)n1` [Example 352, 1-(4-(3-((4-(trifluoromethyl)pyridin-3-yl)oxy)benzyl)piper-azine-1-carbonyl)-1H-pyrazole-3-carboxylic acid], the inhibition at 1 µM at MAGL [1] and at MAGL [2] was above 75% each time.
